Drawing on BindingDB's records for patent US20250313563 (The Broad Institute, 2025), this text covers IC50 for 46 compounds.

Assay [1] concerns the target Glycogen synthase kinase-3 alpha (Homo sapiens, UniProt P49840). As to the kind of experiment: TR-FRET Assay. The method in brief: (§1)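 Signal is measured as TR-FRET between a terbium anti-phospho-Ser641 antibody and streptavidin-d2, added after an EDTA quench. Compounds are preincubated 30 min in assay buffer.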
A general note: TR-FRET usually uses a lanthanide donor and a delayed reading to cut background.

The target of assay [2] is Glycogen synthase kinase-3 beta (Homo sapiens, UniProt P49841). Description: TR-FRET Assay. The essentials: as §1

SMILES strings stand for the structures. “And” between values parts separate entries of the source, which are not always exact repeats. Identical values can stand only once.

Sequence of Glycogen synthase kinase-3 alpha (P49840 whole entry): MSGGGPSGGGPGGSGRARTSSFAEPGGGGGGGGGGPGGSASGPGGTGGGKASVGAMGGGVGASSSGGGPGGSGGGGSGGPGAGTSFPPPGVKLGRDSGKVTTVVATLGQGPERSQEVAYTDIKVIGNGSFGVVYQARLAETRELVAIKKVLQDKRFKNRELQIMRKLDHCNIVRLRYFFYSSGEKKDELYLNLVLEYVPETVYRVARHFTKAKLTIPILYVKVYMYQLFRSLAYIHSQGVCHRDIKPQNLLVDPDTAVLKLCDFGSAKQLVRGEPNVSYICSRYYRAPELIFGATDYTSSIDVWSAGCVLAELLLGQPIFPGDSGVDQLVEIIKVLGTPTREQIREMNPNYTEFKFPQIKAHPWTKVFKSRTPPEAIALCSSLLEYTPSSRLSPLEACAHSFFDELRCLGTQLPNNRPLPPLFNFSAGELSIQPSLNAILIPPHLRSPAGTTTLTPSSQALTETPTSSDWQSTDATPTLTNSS
Sequence of Glycogen synthase kinase-3 beta (P49841 whole entry): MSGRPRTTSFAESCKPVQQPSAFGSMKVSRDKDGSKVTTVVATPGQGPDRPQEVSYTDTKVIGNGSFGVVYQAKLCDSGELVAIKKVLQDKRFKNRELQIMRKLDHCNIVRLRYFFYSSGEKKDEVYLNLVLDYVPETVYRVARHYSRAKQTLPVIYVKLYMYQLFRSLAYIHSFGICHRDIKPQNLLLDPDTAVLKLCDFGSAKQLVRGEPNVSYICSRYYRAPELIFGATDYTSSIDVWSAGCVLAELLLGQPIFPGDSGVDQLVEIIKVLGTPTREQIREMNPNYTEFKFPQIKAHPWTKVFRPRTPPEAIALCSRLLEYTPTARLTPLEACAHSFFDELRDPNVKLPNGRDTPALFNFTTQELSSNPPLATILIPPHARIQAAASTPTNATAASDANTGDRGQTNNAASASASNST

The IC50 is the concentration that inhibits the measured activity by half. As for `CC[C@@]1(c2cccc(-c3ccnc(C)c3)c2)C2=C(CC(C)(C)NC2=O)NC2N=NC(F)=C21` (some centres not stated) [US20250313563, Compound 949012], the 50% inhibitory concentration (IC50) was below 0.1 µM in assay [1] and 0.1 to 1 µM in assay [2].
For `CCC1(c2cccc(Oc3ncccn3)c2)C2=C(CC(C)(C)NC2=O)NC2N=NC(C(F)(F)F)=C21` (configuration not stated) [US20250313563, Compound 950323], the IC50 in assay [1] and in assay [2] was below 0.1 µM in each case.
Turning to `CCC1(c2cccc(-c3ccnc4c3CCC4)c2)C2=CN=NC2NC2=C1C(=O)NC(C)(C)C2` (configuration not stated) [US20250313563, Compound 947676], the IC50 is below 0.1 µM in assay [1] and 0.1 to 1 µM in assay [2].
In the case of `CC1(C)CC(=O)C2=C(C1)NC1=C(CN=N1)C21COC2(CN(C(=O)C3CCCC3)C2)C1` (configuration not stated) [US20250313563, Compound 917232], the IC50 in assay [1] and in assay [2] was below 0.1 µM each time.
For the compound `CC1(C)CC(=O)C2=C(C1)NC1N=NC=C1[C@@]21CCCN(S(=O)(=O)Cc2ccccc2)CC1` (some centres not stated) [US20250313563, Compound 945473], the results for the IC50 in assay [1] and in assay [2] were below 0.1 µM and 0.1 to 1 µM, respectively.
For the compound `CCC1(c2cccc(-c3cncn3C)c2)C2=CN=NC2NC2=C1C(=O)CC(C)(C)C2` (configuration not stated) [US20250313563, Compound 943533], the IC50 in assay [1] and in assay [2] was below 0.1 µM in each case.
Take `CC1(C)CC(=O)C2=C(C1)NC1=C(CN=N1)C21COC2(CN(C(=O)C3CC(C)(C)C3)C2)C1` (configuration not stated) [US20250313563, Compound 947282]: the IC50 was below 0.1 µM in assay [1] and 0.1 to 1 µM in assay [2].
On the same counts, the results for `CCC1(c2cccc(NC(C)=O)c2)C2=CN=NC2NC2=C1C(=O)CC(C)(C)C2` (configuration not stated) [US20250313563, Compound 877310] are below 0.1 µM and 0.1 to 1 µM.
In the case of `COc1ccc(S(=O)(=O)N2CCCC3(CC2)C2=CN=NC2NC2=C3C(=O)CC(C)(C)C2)cc1` (configuration not stated) [US20250313563, Compound 917141], the IC50 in assay [1] is below 0.1 µM; in assay [2], 0.1 to 1 µM.
As for `CCC1(c2cccc(-c3ccnn3C)c2)C2=CN=NC2NC2=C1C(=O)NC(C)(C)C2` (configuration not stated) [US20250313563, Compound 914971], the IC50 in assay [1] was below 0.1 µM; in assay [2] it was 0.1 to 1 µM.
For `CC1(C)CC2=C(C(=O)[C@H]1F)C1(CCOCC1)C1=C(N=NC1)N2` [US20250313563, Compound 883836], the IC50 in assay [1] lay within 0.1 to 1 µM; in assay [2], 1 to 5 µM.
`CC1(C)CC(=O)C2=C(C1)NC1=C(CN=N1)C21COC2(CN(C(=O)c3ccccc3F)C2)C1` (configuration not stated) [US20250313563, Compound 947289]: the IC50 in assay [1] and in assay [2] was below 0.1 µM each time.
With `CCC1(c2cccc(C(F)(F)F)c2)C2=CN=NC2NC2=C1C(=O)N(c1nn(C)cc1C)CC2` (configuration not stated) [US20250313563, Compound 950486], the IC50 in assay [1] is 0.1 to 1 µM; in assay [2], 1 to 5 µM.
`CC[C@@]1(c2cccc(-c3ccnc(C)c3)c2)C2=CN=NC2NC2=C1C(=O)N[C@H](C)C2` (some centres not stated) [US20250313563, Compound 926300]: the IC50 in assay [1] was < 0.1 µM and 0.1 to 1 µM; in assay [2], 0.1 to 1 µM and > 5 µM.
Consider `CCC1(c2cccc(-c3c(C)nn(C)c3C)c2)C2=CN=NC2NC2=C1C(=O)NC(C)(C)C2` (configuration not stated) [US20250313563, Compound 945462], for which the IC50 in assay [1] and in assay [2] was below 0.1 µM throughout.
As to `CCC1(c2cccc(N3[C@H](C)CCC[C@@H]3C)c2)C2=CN=NC2NC2=C1C(=O)CC(C)(C)C2` (some centres not stated) [US20250313563, Compound 865172], the IC50 in assay [1] fell in the range of 0.1 to 1 µM; in assay [2], 1 to 5 µM.
Turning to `CC[C@@]1(c2ccccc2)C2=C(CC(C)(C)CC2=O)NC2N=NC(C(F)F)=C21` (some centres not stated) [US20250313563, Compound 874510], the IC50 in assay [1] and in assay [2] was 0.1 to 1 µM each time.
As to `CC[C@@]1(c2cccc(N(C)c3cncnc3)c2)C2=CN=NC2NC2=C1C(=O)NC(C)(C)C2` (some centres not stated) [US20250313563, Compound 915401], the IC50 fell in the range of 0.1 to 1 µM in assay [1] and 1 to 5 µM in assay [2].
For `CC[C@]1(c2cccc(N3C[C@@H](C)[C@@H](C)C3)c2)C2=CN=NC2NC2=C1C(=O)CC(C)(C)C2` (some centres not stated) [US20250313563, Compound 918326], the IC50 in assay [1] and in assay [2] was 0.1 to 1 µM each time.
For `CC1(C)CC(=O)C2=C(C1)NC1N=NC=C1[C@@]21CCc2c(F)cccc21` (some centres not stated) [US20250313563, Compound 806632], the results for the IC50 in assay [1] and in assay [2] were above 1.67 µM and above 5 µM, respectively.
For `CC[C@@]1(c2cccc(-c3cc(C(F)(F)F)nn3C)c2)C2=CN=NC2NC2=C1C(=O)NC(C)(C)C2` (some centres not stated) [US20250313563, Compound 952018], the IC50 was in the range of 0.1 to 1 µM in assay [1] and 1 to 5 µM in assay [2].
Take `CC[C@]1(c2ccccc2)C2=CN=NC2NC2=C1C(=O)C[C@H](C)C2` (some centres not stated) [US20250313563, Compound 789010]: the IC50 in assay [1] and in assay [2] was 0.1 to 1 µM throughout.
For `CC1(C)CC(=O)C2=C(C1)NC1=C(CN=N1)C21COC2(CN(C(=O)CC3CC(F)(F)C3)C2)C1` (configuration not stated) [US20250313563, Compound 947278], the IC50 in assay [1] and in assay [2] was below 0.1 µM each time.
On to `CCC1(CCc2ccccc2)C2=C(N=NC2)NC2=C1C(=O)CC(C)(C)C2` (configuration not stated) [US20250313563, Compound 819563], for which the IC50 was 1 to 5 µM in assay [1] and above 5 µM in assay [2].
For `CC[C@@]1(c2cccc(-c3c(C)c(C)nn3C)c2)C2=CN=NC2NC2=C1C(=O)NC(C)(C)C2` (some centres not stated) [US20250313563, Compound 950062] the same measures were below 0.1 µM and 0.1 to 1 µM.
Regarding `CC[C@]1(c2cccc(-c3ccnc4c3CCC4)c2)C2=CN=NC2NC2=C1C(=O)NC(C)(C)C2` (some centres not stated) [US20250313563, Compound 948313], the IC50 was < 0.1 µM and 0.1 to 1 µM in assay [1]; < 0.1 µM and 1 to 5 µM in assay [2].
As for `CCC1(c2cccc(C(F)(F)F)c2)C2=CN=NC2NC2=C1C(=O)N(Cc1ccccc1)CC2` (configuration not stated) [US20250313563, Compound 897749], the IC50 in assay [1] is 0.1 to 1 µM; in assay [2] it was above 5 µM.
Regarding `CC[C@]1(c2cccc(-c3cnn(C)c3)c2)C2=C(CC(C)(C)NC2=O)NC2N=NC(C(F)F)=C21` (some centres not stated) [US20250313563, Compound 949911], the half-maximal inhibitory concentration (IC50) is 0.1 to 1 µM in assay [1] and above 5 µM in assay [2].
For `CC[C@]1(c2cccc(C(F)(F)F)c2)C2=CN=NC2NC2=C1C(=O)N(c1ccc(C)cc1)CC2` (some centres not stated) [US20250313563, Compound 949118], the IC50 in assay [1] is below 0.1 µM; in assay [2], 0.1 to 1 µM.
Turning to `CC[C@@]1(c2cccc(C(F)(F)F)c2)C2=CN=NC2NC2=C1C(=O)N(C)C(C)(C)C2` (some centres not stated) [US20250313563, Compound 826791], the IC50 in assay [1] is 0.1 to 1 µM; in assay [2], 1 to 5 µM.
As to `CC1(C)CC(=O)C2=C(C1)NC1=C(CN=N1)C21CCOC1` (configuration not stated) [US20250313563, Compound 826713], the IC50 in assay [1] and in assay [2] was 0.1 to 1 µM in each case.
With `CCC1(c2cccc(N(C)c3ncccn3)c2)C2=C(CC(C)(C)NC2=O)NC2N=NC(C(F)F)=C21` (configuration not stated) [US20250313563, Compound 950484], the IC50 in assay [1] and in assay [2] was below 0.1 µM in each case.
Turning to `CC1(C)CC(=O)C2=C(C1)NC1=C(CN=N1)C21CCN(S(=O)(=O)c2cccc(Cl)c2)CC1` [US20250313563, Compound 947243], the IC50 in assay [1] is < 0.1 µM and 0.1 to 1 µM; in assay [2], < 0.1 µM and 1 to 5 µM.
On to `CC1(C)CC(=O)C2=C(C1)NC1N=NC=C1C21CCCN(CC(F)F)CC1` (configuration not stated) [US20250313563, Compound 889574], for which the IC50 in assay [1] and in assay [2] was 0.1 to 1 µM throughout.
On to `CCC1(c2cccc(N(C)c3ccnc(C)c3)c2)C2=CN=NC2NC2=C1C(=O)CC(C)(C)C2` (configuration not stated) [US20250313563, Compound 917149], for which the IC50 in assay [1] lay in the range of 0.1 to 1 µM; in assay [2], 1 to 5 µM.
Turning to `CC[C@]1(c2cccc(S(=O)(=O)CC3CC3)c2)C2=C(CC(C)(C)NC2=O)NC2N=NC(C(F)(F)F)=C21` (some centres not stated) [US20250313563, Compound 949175], the IC50 in assay [1] and in assay [2] was below 0.1 µM in each case.
With `CC[C@@]1(c2cccc(-c3ccnc(C)c3)c2)C2=CN=NC2NC2=C1C(=O)[C@H](F)C(C)(C)C2` (some centres not stated) [US20250313563, Compound 945476], the IC50 in assay [1] was < 0.1 µM and 0.1 to 1 µM; in assay [2], 0.1 to 1 µM and > 5 µM.
For the compound `CC[C@]1(c2ccccc2)C2=CN=NC2NC2=C1C(=O)C[C@]1(CCNC1=O)C2` (some centres not stated) [US20250313563, Compound 950161], the IC50 is 1 to 5 µM in assay [1] and above 5 µM in assay [2].
For the compound `CC[C@@]1(c2cccc(N(C)c3ncccn3)c2)C2=C(CC(C)(C)NC2=O)NC2N=NC(Cl)=C21` (some centres not stated) [US20250313563, Compound 951618], the IC50 in assay [1] is 0.1 to 1 µM; in assay [2], 1 to 5 µM.
For `CC1(C)CC(=O)C2=C(C1)NC1=C(CN=N1)[C@]21COC2(CN(C(=O)C(F)(F)F)C2)C1` [US20250313563, Compound 948156], the IC50 in assay [1] was below 0.1 µM; in assay [2], 0.1 to 1 µM.
For `CCC1(c2cccc(-c3c(C)nn(C)c3C)c2)C2=C(CC(C)(C)CC2=O)NC2N=NC(C)=C21` (configuration not stated) [US20250313563, Compound 883995] the same measures were below 0.1 µM and below 0.1 µM.
Take `CCC1(CC)C2=C(N=NC2)NC2=C1C(=O)CC(C)(C)C2` [US20250313563, Compound 810505]: the IC50 was 1 to 5 µM in assay [1] and above 5 µM in assay [2].
Regarding `CC[C@]1(c2cccc(Br)c2)C2=CN=NC2NC2=C1C(=O)C[C@@H](C)C2` (some centres not stated) [US20250313563, Compound 810484], the IC50 in assay [1] and in assay [2] was above 5 µM throughout.
For `CC[C@]1(c2ccccc2)C2=CN=NC2NC2=C1C(=O)C[C@H](c1ccccc1)C2` (some centres not stated) [US20250313563, Compound 791265], the IC50 was 1 to 5 µM in assay [1] and above 5 µM in assay [2].
Consider `CC[C@@]1(c2cccc(N3CCCCC3)c2)C2=C(CC(C)(C)CC2=O)NC2N=NC(C)=C21` (some centres not stated) [US20250313563, Compound 884116], for which the IC50 in assay [1] is < 0.1 µM and 0.1 to 1 µM; in assay [2], < 0.1 µM and 0.1 to 1 µM.
Take `CCC1(c2cccc(N(C)c3cccc(C(F)(F)F)n3)c2)C2=CN=NC2NC2=C1C(=O)CC(C)(C)C2` (configuration not stated) [US20250313563, Compound 913122]: the IC50 in assay [1] and in assay [2] was 0.1 to 1 µM throughout.
